Measurements from publication PMC10955584, “New Benzimidazole-Triazole Derivatives as Topoisomerase I Inhibitors: Design, Synthesis, Anticancer Screening, and Molecular Modeling Studies” (ACS Omega, 2024).
Like-named read-outs stand apart in the source and are kept apart here.

Key:
[1] = system: A549 (lung carcinoma cell line); test: MTT cell viability assay, A549; assay type: cell-based; conditions: Homo sapiens
Procedure: (§1) The anticancer activity of compounds 4a–l were screened according to the MTT assays. The MTT assays were performed as previously described.[3] Anticancer activity of final compounds was assessed against […] A549 (lung carcinoma cell line) and C6 (rat glioma cell line) cell lines.

[2] = system: C6 (rat glioma cell line); test: MTT cell viability assay, C6; assay type: cell-based
Procedure: as §1

[3] = system: NIH3T3 (mouse embryo fibroblast cell line); test: MTT cell viability assay, NIH3T3 healthy cells; assay type: cell-based
[4] = target: T1, DNA topoisomerase I (Homo sapiens, UniProt P11387); test: DNA topoisomerase I assay (TopoGen kit, relaxation of supercoiled plasmid DNA, agarose gel); assay type: biochemical; conditions: supercoiled plasmid DNA pHOT 1, 30 min at 37 °C
T1 construct: purchased TopoGen TG1018–2
T1 sequence (P11387 1-765): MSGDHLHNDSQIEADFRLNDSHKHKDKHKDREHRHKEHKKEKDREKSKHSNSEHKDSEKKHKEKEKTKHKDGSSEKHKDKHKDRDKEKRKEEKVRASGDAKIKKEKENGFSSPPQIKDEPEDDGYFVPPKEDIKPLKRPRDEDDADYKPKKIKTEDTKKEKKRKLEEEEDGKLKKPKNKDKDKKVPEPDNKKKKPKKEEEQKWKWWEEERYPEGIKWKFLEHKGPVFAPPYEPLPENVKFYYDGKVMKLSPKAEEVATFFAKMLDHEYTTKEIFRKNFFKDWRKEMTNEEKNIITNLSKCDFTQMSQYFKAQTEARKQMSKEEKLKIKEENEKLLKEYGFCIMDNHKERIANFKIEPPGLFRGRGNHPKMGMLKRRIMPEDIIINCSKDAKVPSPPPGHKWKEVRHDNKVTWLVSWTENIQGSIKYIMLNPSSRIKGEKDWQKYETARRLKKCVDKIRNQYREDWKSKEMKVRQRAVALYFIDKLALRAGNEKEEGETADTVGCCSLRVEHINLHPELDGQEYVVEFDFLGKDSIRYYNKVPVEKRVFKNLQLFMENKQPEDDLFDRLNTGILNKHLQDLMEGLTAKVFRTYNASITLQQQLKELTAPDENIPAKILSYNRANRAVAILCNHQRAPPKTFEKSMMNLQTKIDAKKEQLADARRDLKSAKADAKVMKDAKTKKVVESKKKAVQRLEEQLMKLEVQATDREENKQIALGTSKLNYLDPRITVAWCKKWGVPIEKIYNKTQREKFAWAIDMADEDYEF
Procedure: Topogen’s Topoisomerase I Drug Screening Kit was used to investigate the topoisomerase I effects of the compounds. With this kit, it is determined whether the compounds that inhibit Topo I activity act as catalytic inhibitors or topoisomerase poisons. Topoisomerase I inhibition activities of compounds 4b, 4h, Hoechst 33342, and camptothecin were evaluated in vitro and the analysis of the reaction products was visualized by the electrophoresis method. Supercoiled plasmid DNA (pHOT 1) was used as the control group. As another control group, plasmid DNA and topoisomerase I were used to ensure that the DNA became relaxed. Hoechst 33342, known as a topoisomerase poison, and camptothecin were used as positive controls.
Using agarose gel electrophoresis, the topoisomerase I inhibitory activities of the final compounds were assessed by measuring the relaxation of supercoiled plasmid DNA. A positive control, camptothecin, was used. A final volume of 20 μL reaction volume was used for the experiment, which contained 2 μL of 10× TGS buffer, […], 2 μL of supercoiled plasmid DNA, 2 μL of the test compound, 2 μL of Topo I, 2 μl of 10% SDS, 2 μL of proteinase K, and 2 μL of the DNA loading dye. Following a 30 min incubation period at 37 °C, the reaction mixtures were electrophoresed using 1× TAE buffer for 75 min at a potential of 50 V on a 1% agarose gel.[25]

[5] = system: Topo II; set-up: method as in PMID 35870412; conditions: read-out: IC50 Topo II enzyme inhibition; cited from earlier work

Row | Compound | IC50 [1] [µM] | IC50 [2] [µM] | melting point [°C] | IC50 [3] [µM] | Topoisomerase I inhibitory effect (gel electrophoresis) [4] | IC50 ([3]; NIH3T3, heading: IC50 NIH3T3) [µM] | IC50 [5] [µM]
1 | CCN1CCN(C(=O)CSc2nnc(-c3ccc4nc(-c5ccc(O)cc5)[nH]c4c3)n2CC)CC1 [4a, 2-((4-Ethyl-5-(2-(4-hydroxyphenyl)-1H-benzo[d]imidazol-6-yl)-4H-1,2,4-triazol-3-yl)thio)-1-(4-ethylpiperazin-1-yl)ethanone] | 21.8 ± 1.04 | > 100 | 223.5 | 64.8 ± 1.96 |  |  | 
2 | CCn1c(SCC(=O)N2CCN(c3ccccc3)CC2)nnc1-c1ccc2nc(-c3ccc(O)cc3)[nH]c2c1 [4b, 2-((4-Ethyl-5-(2-(4-hydroxyphenyl)-1H-benzo[d]imidazol-6-yl)-4H-1,2,4-triazol-3-yl)thio)-1-(4-phenylpiperazin-1-yl)ethanone] | 7.34 ± 0.21 | 42.1 ± 2.1 | 319 | 56.7 ± 1.18 | significant inhibitory activity |  | 
3 | CCn1c(SCC(=O)N2CCN(c3ncccn3)CC2)nnc1-c1ccc2nc(-c3ccc(O)cc3)[nH]c2c1 [4d, 2-((4-Ethyl-5-(2-(4-hydroxyphenyl)-1H-benzo[d]imidazol-6-yl)-4H-1,2,4-triazol-3-yl)thio)-1-(4-(2-pyrimidinyl)piperazin-1-yl)ethanone] | 54.4 ± 1.84 | > 100 | 144 | 80.5 ± 2.76 |  |  | 
4 | CCN1CCN(C(=O)CSc2nnc(-c3ccc4nc(-c5ccc(OC)cc5)[nH]c4c3)n2CC)CC1 [4e, 2-((4-Ethyl-5-(2-(4-methoxyphenyl)-1H-benzo[d]imidazol-6-yl)-4H-1,2,4-triazol-3-yl)thio)-1-(4-ethylpiperazin-1-yl)ethanone] | 75.7 ± 2.55 | > 100 | 112.7 | 77.7 ± 2.47 |  |  | 
5 | CCn1c(SCC(=O)N2CCN(c3ccccn3)CC2)nnc1-c1ccc2nc(-c3ccc(OC)cc3)[nH]c2c1 [4g, 2-((4-Ethyl-5-(2-(4-methoxyphenyl)-1H-benzo[d]imidazol-6-yl)-4H-1,2,4-triazol-3-yl)thio)-1-(4-(2-pyridinyl)piperazin-1-yl)ethanone] | 87.2 ± 3.97 | > 100 | 204.3 | 85.9 ± 2.92 |  |  | 
6 | CCOc1ccc(-c2nc3ccc(-c4nnc(SCC(=O)N5CCN(c6ccccc6)CC5)n4CC)cc3[nH]2)cc1 [4j, 2-((4-Ethyl-5-(2-(4-ethoxyphenyl)-1H-benzo[d]imidazol-6-yl)-4H-1,2,4-triazol-3-yl)thio)-1-(4-phenylpiperazin-1-yl)ethanone] | 54.1 ± 2.18 | > 100 | 118.8 | 69.5 ± 2.85 |  |  | 
7 | CCOc1ccc(-c2nc3ccc(-c4nnc(SCC(=O)N5CCN(c6ncccn6)CC5)n4CC)cc3[nH]2)cc1 [4l, 2-((4-Ethyl-5-(2-(4-ethoxyphenyl)-1H-benzo[d]imidazol-6-yl)-4H-1,2,4-triazol-3-yl)thio)-1-(4-(2-pyrimidinyl)piperazin-1-yl)ethanone] | 12.4 ± 0.54 | 38.8 ± 1.82 | 140.8 | 35.7 ± 1.11 |  |  | 
8 | CCOc1ccc(-c2nc3ccc(-c4nc5cc(N6CCN(C)CC6)ccc5[nH]4)cc3[nH]2)cc1 [Hoechst 33342, reference compound] | 0.422 ± 0.02 | 1.05 ± 0.3 |  | 13 ± 0.598 | strong inhibitory effect as a topoisomerase poison |  | 
9 | CC[C@@]1(O)C(=O)OCc2c1cc1n(c2=O)Cc2cc3ccccc3nc2-1 [camptothecin, reference compound] |  |  |  |  | strong inhibitory effect as a topoisomerase poison |  | 
10 | COc1cccc2c1C(=O)c1c(O)c3c(c(O)c1C2=O)C[C@@](O)(C(=O)CO)C[C@@H]3O[C@H]1C[C@H](N)[C@H](O)[C@H](C)O1 [doxorubicin, reference compound] |  |  |  |  |  | 1.06 ± 0.00917 | 
11 | CN[C@@H]1C[C@H]2O[C@@](C)([C@@H]1OC)n1c3ccccc3c3c4c(c5c6ccccc6n2c5c31)C(=O)NC4 [staurosporine] |  |  |  |  |  |  | 4.64

Continued, in another order:

Row | IC50 [1] [µM] | IC50 [2] [µM] | melting point [°C] | Compound | IC50 [3] [µM] | Topoisomerase I inhibitory effect (gel electrophoresis) [4] | IC50 ([3]; NIH3T3, heading: IC50 NIH3T3) [µM] | IC50 [5] [µM]
12 | 15.8 ± 0.63 | 24 ± 2.4 | 312.4 | CCn1c(SCC(=O)N2CCN(c3ccccn3)CC2)nnc1-c1ccc2nc(-c3ccc(O)cc3)[nH]c2c1 [4c, 2-((4-Ethyl-5-(2-(4-hydroxyphenyl)-1H-benzo[d]imidazol-6-yl)-4H-1,2,4-triazol-3-yl)thio)-1-(4-(2-pyridinyl)piperazin-1-yl)ethanone] | 32.2 ± 0.74 |  |  | 
13 | 69.4 ± 3.04 | > 100 | 153.8 | CCn1c(SCC(=O)N2CCN(c3ccccc3)CC2)nnc1-c1ccc2nc(-c3ccc(OC)cc3)[nH]c2c1 [4f, 2-((4-Ethyl-5-(2-(4-methoxyphenyl)-1H-benzo[d]imidazol-6-yl)-4H-1,2,4-triazol-3-yl)thio)-1-(4-phenylpiperazin-1-yl)ethanone] | 92.8 ± 3.06 |  |  | 
14 | 4.56 ± 0.18 | 13.2 ± 0.46 | 190.5 | CCn1c(SCC(=O)N2CCN(c3ncccn3)CC2)nnc1-c1ccc2nc(-c3ccc(OC)cc3)[nH]c2c1 [4h, 2-((4-Ethyl-5-(2-(4-methoxyphenyl)-1H-benzo[d]imidazol-6-yl)-4H-1,2,4-triazol-3-yl)thio)-1-(4-(2-pyrimidinyl)piperazin-1-yl)ethanone] | 74.4 ± 2.68 | significant inhibitory activity |  | 
15 | 33 ± 1.42 | 39.4 ± 2.58 | 144.3 | CCOc1ccc(-c2nc3ccc(-c4nnc(SCC(=O)N5CCN(CC)CC5)n4CC)cc3[nH]2)cc1 [4i, 2-((4-Ethyl-5-(2-(4-ethoxyphenyl)-1H-benzo[d]imidazol-6-yl)-4H-1,2,4-triazol-3-yl)thio)-1-(4-ethylpiperazin-1-yl)ethanone] | 30.6 ± 1.08 |  |  | 
16 | 24.9 ± 1.21 | 64.6 ± 2.66 | 162.2 | CCOc1ccc(-c2nc3ccc(-c4nnc(SCC(=O)N5CCN(c6ccccn6)CC5)n4CC)cc3[nH]2)cc1 [4k, 2-((4-Ethyl-5-(2-(4-ethoxyphenyl)-1H-benzo[d]imidazol-6-yl)-4H-1,2,4-triazol-3-yl)thio)-1-(4-(2-pyridinyl)piperazin-1-yl)ethanone] | 46.4 ± 1.21 |  |  | 
